Source: publication PMC3210919 (Biochemistry, 2011)
“And” between values parts separate entries of the source, which are not always exact repeats. Identical values can stand only once. Like-named read-outs stand apart in the source and are kept apart here.

Tests used:
[1] = system: wild-type RePC (pyruvate carboxylase from R. etli); assay: Pyruvate carboxylation activity, malate dehydrogenase coupled assay; assay type: biochemical, Rhizobium etli
[2] = target: T1, wild-type RePC (Rhizobium etli, UniProt Q2K340); assay: HCO3^−-dependent ATPase activity in the absence of pyruvate; assay type: biochemical
[3] = target: K1119Q RePC mutant (Rhizobium etli, UniProt Q2K340, K1119Q); assay: HCO3^−-dependent ATPase reaction, K1119Q mutant; assay type: biochemical
[4] = target: T882A RePC mutant (Rhizobium etli, UniProt Q2K340, T882A)
[5] = target: T1, wild-type RePC; assay: Coupling study: initial rates of Pi release at varying pyruvate; assay type: biochemical; conditions: for Ka pyruvate, stimulation of Pi release: 15 mM HCO3^−
[6] = target: T1, wild-type RePC; assay: Coupling study: initial rates of oxaloacetate formation at varying pyruvate; conditions: pyruvate varied; for kcat, oxaloacetate formation: 15 mM HCO3^−
[7] = target: T1, wild-type RePC; assay type: biochemical
[8] = target: T1, wild-type RePC; assay type: biochemical; remark: listed apart in the source
[9] = target: T1, wild-type RePC; assay type: biochemical; remark: listed apart in the source
[10] = system: NC(=O)OP(=O)(O)O; assay: purified protein, by the assay type; conditions: other: T882A, no free biotin; pH 7.5; 25.0 °C
[11] = labelled substrate varied, others saturating, pH 7.5, 25° C, 0.25 mM acetyl-CoA
[12] = acetyl-CoA varied, 0.5 mM free Mg^2+, Hill fit eqn (4)
[13] = acetyl-CoA varied, 1.0 mM free Mg^2+, Hill fit eqn (4)
[14] = acetyl-CoA varied, 3.0 mM free Mg^2+, Hill fit eqn (4)
[15] = saturating acetyl-CoA and substrates

Nc1ncnc2c1ncn2[C@@H]1O[C@H](COP(=O)(O)OP(=O)(O)OP(=O)(O)O)[C@@H](O)[C@H]1O [MgATP]
Km [1, 11]: 145 ± 9 µM
kcat [1, 11]: 396 ± 10 ^d min^−1
% kcat of pyruvate carboxylation ([2]; MgATP varied, pH 7.5, 25° C, 0.25 mM acetyl-CoA): 0.6%
kcat ([2]; wild-type, no free biotin, pH 7.5, 25° C, 15 mM HCO3^−, 7.5 mM MgCl2, 0.25 mM acetyl-CoA): 0.043 ± 0.0015 s⁻¹
% wild-type kcat/Km ([3]; (+) 10 mM free biotin): 40%
% wild-type kcat/Km ([3]; no free biotin): 0.06%
kcat ([3]; no free biotin): 0.00137 ± 1.7e-05 s⁻¹
% wild-type kcat/Km ([4]; (+) 10 mM free biotin): 260%
% wild-type kcat/Km ([4]; no free biotin): 225%
kcat ([4]; no free biotin): 0.233 ± 0.033 s⁻¹

CC(=O)C(=O)O [pyruvate]
Km [1, 11]: 150 ± 10 µM
kcat [1, 11]: 440 ± 8 ^d min^−1
Vmax ([1]; pyruvate varied, 0.7 mM free Mg^2+): 0.69 ± 0.02 µmol/mg/min
Vmax ([1]; pyruvate varied, 3.0 mM free Mg^2+): 3.18 ± 0.08 µmol/mg/min
Vmax ([1]; pyruvate varied, 5.0 mM free Mg^2+): 3.98 ± 0.04 µmol/mg/min
Vmax ([1]; pyruvate varied, […] free Mg^2+): 1.41 ± 0.01 µmol/mg/min
Km ([1]; read-out: Km pyruvate, pyruvate varied, 0.7 mM free Mg^2+): 3100 ± 200 µM
Km ([1]; read-out: Km pyruvate, pyruvate varied, 3.0 mM free Mg^2+): 2650 ± 40 µM
Km ([1]; read-out: Km pyruvate, pyruvate varied, 5.0 mM free Mg^2+): 150 ± 10 µM
Km ([1]; read-out: Km pyruvate, pyruvate varied, […] free Mg^2+): 3000 ± 400 µM
Ka pyruvate, stimulation of Pi release ([5]; (+) 0.25 mM acetyl-CoA): 0.16 ± 0.01 mM
Ka pyruvate, stimulation of Pi release ([5]; (−) acetyl-CoA): 0.048 ± 0.008 mM
fold increase of the rates of Pi release from the BC domain ([5]; low concentrations of pyruvate, absence of acetyl-CoA): 120-175 fold
fold stimulation of the rate of Pi release from the BC domain ([5]; lowest concentrations of pyruvate, presence of acetyl-CoA): 300-500 fold
Ka pyruvate (Pi release) without acetyl-CoA, % of (+) acetyl-CoA ([5]; pyruvate varied): 30%
kcat Pi release without acetyl-CoA, % of (+) acetyl-CoA ([5]; pyruvate varied): 5.8%
kcat/Ka (Pi release) without acetyl-CoA, % of (+) acetyl-CoA ([5]; pyruvate varied): 19%
limiting value of the ratio oxaloacetate formation / Pi release ([5]; saturating pyruvate and acetyl-CoA): 1.08
fold increase in the rate of Pi release ([5]; sub-saturating concentrations of pyruvate): ~300 fold
Km pyruvate (oxaloacetate formation) without acetyl-CoA, % of (+) acetyl-CoA [6]: 2%
kcat oxaloacetate formation without acetyl-CoA, % of (+) acetyl-CoA [6]: 0.5%
kcat/Km (oxaloacetate formation) without acetyl-CoA, % of (+) acetyl-CoA [6]: 24%
kcat, oxaloacetate formation ([6]; (+) 0.25 mM acetyl-CoA): 5.17 ± 0.13 s⁻¹
kcat, oxaloacetate formation ([6]; (−) acetyl-CoA): 0.0253 ± 0.0005 s⁻¹

CC(=O)SCCNC(=O)CCNC(=O)[C@H](O)C(C)(C)COP(=O)(O)OP(=O)(O)OC[C@H]1O[C@@H](n2cnc3c(N)ncnc32)[C@H](O)[C@@H]1OP(=O)(O)O [acetyl-CoA, acetyl-coenzyme A, reference compound]
n acetyl-CoA (Hill coefficient) ([1]; acetyl-CoA varied, 0.5 mM free Mg^2+): 2.0 ± 0.3
Ka acetyl-CoA [1, 12]: 38 ± 2 µM
Vmax [1, 12]: 1.16 ± 0.07 µmol/mg/min
n acetyl-CoA (Hill coefficient) ([1]; acetyl-CoA varied, 1.0 mM free Mg^2+): 2.8 ± 0.5
Ka acetyl-CoA [1, 13]: 26 ± 2 µM
Vmax [1, 13]: 1.39 ± 0.06 µmol/mg/min
n acetyl-CoA (Hill coefficient) ([1]; acetyl-CoA varied, 3.0 mM free Mg^2+): 2.6 ± 0.2
Ka acetyl-CoA [1, 14]: 10 µM and 10.0 ± 0.4 µM
Vmax [1, 14]: 5.7 ± 0.1 µmol/mg/min
Vmax ([1]; acetyl-CoA varied, […] free Mg^2+, Hill fit eqn (4)): 2.59 ± 0.08 µmol/mg/min
overall fold decrease in the Ka for acetyl-CoA ([1]; addition of 3.0 mM free Mg^2+): 3.8 fold
kcat (specific activity), (+) acetyl-CoA [1, 15]: 11.7 ± 0.333 s⁻¹
% rate (−) acetyl-CoA compared to the specific activity in the presence of acetyl-CoA ([1]; saturating substrates): 9%
decrease in rate caused by lack of acetyl-CoA ([7]; full reverse reaction): 78%
kcat (specific activity), (+) acetyl-CoA [7, 15]: 0.0139 ± 8.3e-05 s⁻¹
% rate (−) acetyl-CoA compared to the specific activity in the presence of acetyl-CoA ([7]; saturating substrates): 18%
decrease in rate caused by lack of acetyl-CoA ([2]; MgATP hydrolysis): 82%
kcat (specific activity), (+) acetyl-CoA [2, 15]: 0.043 ± 0.0015 s⁻¹
% rate (−) acetyl-CoA compared to the specific activity in the presence of acetyl-CoA ([2]; saturating substrates): 22%
kcat (specific activity), (+) acetyl-CoA [8, 15]: 0.15 ± 0.00067 s⁻¹
% rate (−) acetyl-CoA compared to the specific activity in the presence of acetyl-CoA ([8]; saturating substrates): 67%
effect of acetyl-CoA on the rate of MgADP phosphorylation by carbamoyl phosphate [9]: no effect
kcat (specific activity), (+) acetyl-CoA [9, 15]: 0.04 ± 0.0017 s⁻¹
% rate (−) acetyl-CoA compared to the specific activity in the presence of acetyl-CoA ([9]; saturating substrates): 100%

T882A RePC mutant (Rhizobium etli CFN 42; T882A)
Km [10]: 3400 ± 500 µM
kcat [10]: 0.4 s⁻¹
kcat/Km [10]: 117 M⁻¹ s⁻¹

NC(=O)C(=O)O [oxamate]
fold stimulation of the rate of oxaloacetate decarboxylation compared to the full reverse reaction ([8]; saturating oxamate): 11 fold

Nc1ncnc2c1ncn2[C@@H]1O[C@H](COP(=O)(O)OP(=O)(O)O)[C@@H](O)[C@H]1O [MgADP]
% kcat of pyruvate carboxylation ([7]; MgADP varied, pH 7.5, 25° C, 0.25 mM acetyl-CoA): 0.2%
